In this assay the target is T1, RORgT (Homo sapiens, UniProt P51449).
T1 construct: Gal4 (fusion partner); expressed in transfected cells; host or cells: engineered Jurkat cells (Jurkat pEx/Gal/hRORγ CLBD/HYG pG5luc/blast)
T1 sequence (P51449 267-516): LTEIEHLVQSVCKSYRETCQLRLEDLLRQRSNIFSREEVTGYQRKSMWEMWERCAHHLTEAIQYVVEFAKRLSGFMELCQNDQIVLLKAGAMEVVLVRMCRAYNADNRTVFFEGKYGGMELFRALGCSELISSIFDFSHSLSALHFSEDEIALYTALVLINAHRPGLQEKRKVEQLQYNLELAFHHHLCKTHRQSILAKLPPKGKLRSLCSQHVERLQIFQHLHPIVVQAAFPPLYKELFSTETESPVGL
Description: RORgT Gal4 Luciferase Reporter Gene Assay. The assay is classed as cell-based. To be noted: engineered Jurkat cells overexpressing RORgT (LBD or full length) with Gal4 Luc reporter, 18 hours at 37° C., 40 μM to 0.67 nM. Put shortly:
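Cells exposed to compound 18 hours at 37° C, then lysed for luciferase luminescence. Inhibition of constitutive activity expressed as percent reduction of signal window relative to a control compound.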
For orientation: A reporter such as luciferase makes a cellular process visible.

Structures are written as SMILES. Like-named read-outs stand apart in the source and are kept apart here.

In general, EC50 refers to the concentration that produces a half-maximal response. Turning to `COc1ccc(Oc2c(Cl)ccc(C(=O)NCc3ccc(N(C)C)cc3)c2Cl)cc1C(C)C` [Example 195], the EC50 (read-out: RORg_GAL4 EC50) was 616 nM. Same read-out and setting: next, `COc1ccc(Oc2c(Cl)ccc(NC(=O)CN3CCN(S(C)(=O)=O)CC3)c2Cl)cc1C(C)C` [Example 106]: 32 nM. Turning to `CCCS(=O)(=O)Nc1cc(Cl)c(Oc2ccc(OC)c(C(C)C)c2)c(Cl)c1` [Example 303], under “read-out: RORg_GAL4 EC50”, the EC50 was 858 nM.

As to `COc1ccc(Oc2c(Cl)ccc(C(=O)NCC3CCS(=O)(=O)CC3)c2Cl)cc1C(C)C` [Example 100], the EC50 (read-out: RORg_GAL4 EC50) came to 117 nM. Still for that read-out and setting: as for `COc1ccc(Oc2c(Cl)cc(NC(=O)Cc3ccc(Cl)nc3)cc2Cl)cc1C(C)C` [Example 343], the figure is 67 nM; as for `CC(C)c1cc(Oc2c(Cl)cc(NC(=O)CC3CCN(S(C)(=O)=O)CC3)cc2Cl)ccc1F` [Example 266], 11 nM; as for `COc1ncc(Oc2c(Cl)ccc(CNC(=O)C3CCN(S(N)(=O)=O)CC3)c2Cl)cc1C(C)C` [Example 147], 9.6 nM. Still for that read-out and setting: as for `COc1ccc(Oc2c(Cl)ccc(C(=O)NCc3ccccc3Cl)c2Cl)cc1C(C)C` [Example 200], the figure is 330 nM; as for `COc1ccc(Oc2c(Cl)cc(NC(=O)CC3CCN(S(C)(=O)=O)CC3)cc2Cl)cc1C(C)C` [Example 45, N-(3,5-dichloro-4-(3-isopropyl-4-methoxyphenoxy)phenyl)-2-(1-(methylsulfonyl)piperidin-4-yl)acetamide], 18 nM; as for `COc1ncc(Oc2c(Cl)cc(NC(=O)CC3CCN(S(=O)(=O)C(C)C)CC3)cc2Cl)cc1C(C)C` [Example 24, N-(3,5-dichloro-4-((5-isopropyl-6-methoxypyridin-3-yl)oxy)phenyl)-2-(1-(isopropylsulfonyl)piperidin-4-yl)acetamide], 45 nM. On the same count and under the same terms, next, `COc1ccc(Oc2c(Cl)ccc(C(=O)N3CCC(c4ccc(Cl)cc4)CC3)c2Cl)cc1C(C)C` [Example 191]: 128 nM. Turning to `CC(C)(F)c1cc(F)cc(Oc2c(Cl)cc(NC(=O)CN3CCN(S(C)(=O)=O)CC3)cc2Cl)c1` [Example 334], the EC50 (read-out: RORg_GAL4 EC50) came to 6.6 nM. For `CCS(=O)(=O)N1CCC(CNC(=O)c2ccc(Cl)c(Oc3cc(F)cc(C(C)C)c3)c2Cl)CC1` [Example 115], the EC50 (read-out: RORg_GAL4 EC50) turned out to be 25 nM. As to `NS(=O)(=O)c1ccc(CNC(=O)c2ccc(Cl)c(Oc3cc(F)cc(CCC(F)(F)F)c3)c2Cl)cc1` [Example 326], the EC50 (read-out: RORg_GAL4 EC50) worked out at 10 nM.

In the case of `COc1ccc(Oc2c(Cl)ccc(CNC(=O)C3CN(S(C)(=O)=O)C3)c2Cl)cc1C(C)C` [Example 88], the EC50 (read-out: RORg_GAL4 EC50) turned out to be 24 nM.

Regarding `COc1ccc(Oc2c(Cl)cc(N3CC(CO)OC3=O)cc2Cl)cc1C(C)C` (centres unmarked) [Example 10, 3-(3,5-dichloro-4-(3-isopropyl-4-methoxyphenoxy)phenyl)-5-(hydroxymethyl) oxazolidin-2-one], the EC50 (read-out: RORg_GAL4 EC50) was determined as 2120 nM.

Consider `CC(C)c1cc(Oc2c(Cl)cc(NC(=O)Cc3cccnc3)cc2Cl)ccc1OC(F)(F)F` [Example 259], for which the EC50 (read-out: RORg_GAL4 EC50) is 356 nM. As to `COc1ccc(Oc2c(Cl)cc(NC(=O)CC3CCN(S(C)(=O)=O)CC3)cc2Cl)cc1C(C)(C)C` [Example 255], the EC50 (read-out: RORg_GAL4 EC50) is 19 nM.

For `CC(C)c1cc(F)cc(Oc2c(Cl)cc(NC(=O)Cc3cccc(S(C)(=O)=O)c3)cc2Cl)c1` [Example 328], the EC50 (read-out: RORg_GAL4 EC50) is 19 nM. On the same count and under the same terms, next, `COc1ccc(Oc2c(Cl)cc(NC(=O)CC3CCCN(S(C)(=O)=O)C3)cc2Cl)cc1C(C)C` (single isomer, unassigned) [Example 43, N-(3,5-dichloro-4-(3-isopropyl-4-methoxyphenoxy)phenyl)-2-(1-(methylsulfonyl)piperidin-3-yl)acetamide]: 246 nM. On the same count and under the same terms, as for `COc1ncc(Oc2c(Cl)cc(NC(=O)CC3CCN(S(=O)(=O)C4CC4)CC3)cc2Cl)cc1C(C)C` [Example 119], the figure is 11 nM; as for `CCS(=O)(=O)c1ccc(CC(=O)Nc2cc(Cl)c(Oc3ccc(OC)c(C(C)C)c3)c(Cl)c2)cc1` [Example 307], 16 nM; as for `CC1(c2cc(F)cc(Oc3c(Cl)ccc(C(=O)N4CCC5(CC4)CN(S(C)(=O)=O)C5)c3Cl)c2)CC1` [Example 277], 5.6 nM.

Turning to `CC(C)c1cc(Oc2c(Cl)ccc(C(=O)NCc3ccc(S(C)(=O)=O)cc3)c2Cl)ccc1F` [Example 131], the EC50 (read-out: RORg_GAL4 EC50) amounted to 2.7 nM.

`COc1ccc(Oc2c(Cl)cc(NC(=O)CC3CCCN(S(N)(=O)=O)C3)cc2Cl)cc1C(C)C` (centres unmarked) [Example 314]: the EC50 (read-out: RORg_GAL4 EC50) is 844 nM. In the case of `COc1ccc(Oc2c(Cl)ccc(C(=O)NCc3cccc(Cl)c3)c2Cl)cc1C(C)C` [Example 198], the EC50 (read-out: RORg_GAL4 EC50) came to 872 nM. The same measure, in the same setting: as for `COc1ccc(Oc2c(Cl)ccc(NC(=O)CC3CN(S(C)(=O)=O)C3)c2Cl)cc1C(C)C` [Example 58], the figure is 383 nM. As for `CC(C)c1cc(F)cc(Oc2c(Cl)ccc(C(=O)N3CCN(S(C)(=O)=O)CC3)c2Cl)c1` [Example 263], for the setting “RORg_GAL4 EC50 (nM)”, the EC50 came to 105 nM. With `COc1ccc(Oc2c(Cl)cc(NC(=O)CC3CCN(S(=O)(=O)C4CC4)CC3)cc2Cl)cc1C(C)C` [Example 320], the EC50 (read-out: RORg_GAL4 EC50) was 177 nM. On the same count and under the same terms, next, `COc1ncc(Oc2c(Cl)ccc(C(=O)NC(C)c3ccc(S(C)(=O)=O)cc3)c2Cl)cc1C(C)C` (centres unmarked) [Example 135]: 11 nM; `COc1ccc(Oc2c(Cl)cc(NC(=O)c3cnccn3)cc2Cl)cc1C(C)C` [Example 294]: 4520 nM. On to `COc1ccc(Oc2c(Cl)cc(NC(=O)c3c[nH]c4ncncc34)cc2Cl)cc1C(C)C` [Example 347], for which the EC50 (read-out: RORg_GAL4 EC50) worked out at 1820 nM. On the same count and under the same terms, as for `COc1ccc(Oc2c(Cl)cc(NC(=O)Cc3cccnc3Cl)cc2Cl)cc1C(C)C` [Example 345], the figure is 124 nM; as for `COc1ccc(Oc2c(Cl)ccc(C(=O)NCc3cnc(C)cn3)c2Cl)cc1C(C)C` [Example 206], 100 nM; as for `COc1ccc(Oc2c(Cl)ccc(C(=O)NCc3ccc(S(C)(=O)=O)cc3)c2Cl)cc1C(C)C` [Example 79], 18 nM. On to `CC(C)c1cc(F)cc(Oc2c(Cl)ccc(CNC(=O)C3CCN(S(C)(=O)=O)CC3)c2Cl)c1` [Example 148], for which, where the note is “read-out: RORg_GAL4 EC50”, the EC50 was found to be 4 nM. On the same count and under the same terms, as for `CC(c1cc(F)cc(Oc2c(Cl)cc(NC(=O)CC3CCN(S(C)(=O)=O)CC3)cc2Cl)c1)C(F)(F)F` (centres unmarked) [Example 351], the figure is 5.7 nM; as for `CC(C)c1cc(F)cc(Oc2c(Cl)ccc(C(=O)NC(C)c3ccc(S(C)(=O)=O)cc3)c2Cl)c1` (centres unmarked) [Example 136], 13 nM; as for `COc1ccc(Oc2c(Cl)ccc(C(=O)N3CCN(C)CC3)c2Cl)cc1C(C)C` [Example 196], 200 nM. As for `CC(C)c1cc(F)cc(Oc2c(Cl)ccc(CNC(=O)C3CCN(S(N)(=O)=O)CC3)c2Cl)c1` [Example 151], the EC50 (read-out: RORg_GAL4 EC50) worked out at 9.9 nM.

For the compound `COc1ccc(Oc2c(Cl)cc(NC(=O)CN3CC(NS(C)(=O)=O)C3)cc2Cl)cc1C(C)C` [Example 163], the EC50 (read-out: RORg_GAL4 EC50) was 340 nM. The same measure, in the same setting: as for `COc1ccc(Oc2c(Cl)cc(C(=O)NCc3ccc(S(C)(=O)=O)cc3)cc2Cl)cc1C(C)C` [Example 158], the figure is 499 nM; as for `CCS(=O)(=O)N1CCC(OCC(=O)NCc2ccc(Cl)c(Oc3ccc(OC)c(C(C)C)c3)c2Cl)CC1` [Example 223], 1110 nM; as for `CCS(=O)(=O)Nc1cc(Cl)c(Oc2ccc(OC)c(C(C)C)c2)c(Cl)c1` [Example 33, N-(3,5-dichloro-4-(3-isopropyl-4-methoxyphenoxy)phenyl)ethanesulfonamide], 4280 nM. Same read-out and setting: as for `COC(=O)NCC1CN(c2cc(Cl)c(Oc3ccc(OC)c(C(C)C)c3)c(Cl)c2)C(=O)O1` (centres unmarked) [Example 251], the figure is 433 nM; as for `COc1ccc(Oc2c(Cl)cc(NC(=O)CCn3cncn3)cc2Cl)cc1C(C)C` [Example 245], 1560 nM; as for `COc1ccc(Oc2c(Cl)ccc(CNS(=O)(=O)c3cccnc3)c2Cl)cc1C(C)C` [Example 21, N-(2,4-dichloro-3-(3-isopropyl-4-methoxyphenoxy)benzyl)pyridine-3-sulfonamide], 650 nM. For `COc1ccc(Oc2c(Cl)cc(NC(=O)CCC(=O)O)cc2Cl)cc1C(C)C` [Example 340], the EC50 (read-out: RORg_GAL4 EC50) worked out at 5530 nM.

For `COc1ncc(Oc2c(Cl)ccc(NC(=O)Cc3ccc(S(C)(=O)=O)cc3)c2Cl)cc1C(C)C` [Example 23, N-(2,4-dichloro-3-((5-isopropyl-6-methoxypyridin-3-yl)oxy)phenyl)-2-(4-(methylsulfonyl)phenyl)acetamide], the EC50 (read-out: RORg_GAL4 EC50) came to 49 nM. Same read-out and setting: as for `CC(C)c1cc(F)cc(Oc2c(Cl)ccc(C(=O)N3CCC4(CC3)CN(S(C)(=O)=O)C4)c2Cl)c1` [Example 112], the figure is 14 nM. The same measure, in the same setting: as for `COc1ccc(Oc2c(Cl)ccc(C(=O)NCCC3CCS(=O)(=O)CC3)c2Cl)cc1C(C)C` [Example 84], the figure is 152 nM.

`COc1ccc(Oc2c(Cl)cc(NC(=O)CN3CC[C@@H](NS(=O)(=O)C4CC4)C3)cc2Cl)cc1C(C)C` [Example 161]: where the note is “read-out: RORg_GAL4 EC50”, the EC50 was determined as 2330 nM. The same measure, in the same setting: as for `CC(C)c1cc(F)cc(Oc2c(Cl)cc(NC(=O)CN3CCN(S(C)(=O)=O)CC3)cc2Cl)c1` [Example 332], the figure is 7.6 nM; as for `COc1ccc(Oc2c(Cl)ccc(C(=O)N3CCc4ccccc4C3)c2Cl)cc1C(C)C` [Example 179], 1130 nM. In the case of `COc1ncc(Oc2c(Cl)ccc(CNC(=O)c3ccc(S(C)(=O)=O)cc3)c2Cl)cc1C(C)C` [Example 145], under “read-out: RORg_GAL4 EC50”, the EC50 was 8.5 nM. `COc1ccc(Oc2c(Cl)cc(NC(=O)CCCc3ccccc3)cc2Cl)cc1C(C)C` [Example 285]: where the note is “read-out: RORg_GAL4 EC50”, the EC50 is 284 nM.

The record behind these values is US20220306630A1, “AGONISTS OF ROR GAMMAt” (BRISTOL-MYERS SQUIBB COMPANY, priority 2019, published 2022).
